Values of other authors as cited in patent US9974792B2, “Methods for treating cancers” (Gilead Sciences, Inc., priority 2013, dated 2018).

Legend:
[1] = system: subjects with B-cell malignancies, CLL/SLL; settings: cited from earlier work
CLL subjects = settings: rituximab monotherapy; CLL subjects with similar median age and prior therapies; cited from earlier work

Molecule: COc1cc(Nc2ncc(F)c(Nc3ccc4c(n3)N(COP(=O)(O)O)C(=O)C(C)(C)O4)n2)cc(OC)c1OC [fostamatinib]
- PFS ([1]; 11 subjects with CLL/SLL): 6.4 months
- overall progression-free survival (PFS) ([1]; participants treated in the phase 2 portion of the study): 18 weeks
- Response rate ([1]; six subjects with partial lymph-node reduction of at least 50%): 54.5%

Molecule: rituximab: monoclonal antibody (anti-CD20), monotherapy comparator in CLL subjects
- 24-week PFS (CLL subjects): 46%
